Measured values: US9408387B2, “Safening 6-amino-2-(substituted phenyl)-5-substituted-4-pyrimidinecarboxylate herbicide injury on cereal crops” (Dow AgroSciences LLC, priority 2009, dated 2016)

Experiments:
Format in all cases: in vivo
[1] = test system: winter wheat (Triticum aestivum L; TRZAW); test: Postemergence herbicidal safening in cereal crops, greenhouse, visual injury: winter wheat; conditions: 20-22 d
Method: (§1) Evaluation of Postemergence Herbicidal Safening in Cereal Crops
(§2) Seeds of the desired test plant species were planted in Sun Gro MetroMix® 306 planting mixture, which typically has a pH of 6.0 to 6.8 and an organic matter content of about 30 percent, in plastic pots with a surface area of 103.2 square centimeters (cm^2). When required to ensure good germination and healthy plants, a fungicide treatment and/or other chemical or physical treatment was applied. The plants were grown for 7-36 days (d) in a greenhouse with an approximate 14-hour (h) photoperiod which was maintained at about 18° C. during the day and 17° C. during the night. Nutrients and water were added on a regular basis and supplemental lighting was provided with overhead metal halide 1000-Watt lamps as necessary. The plants were employed for testing when they reached the second or third true leaf stage.
(§3) Treatments consisted of the acids or esters of compounds 1-10 and cloquintocet-mexyl (CQC-M), fenchlorazole-ethyl, mefenpyr-diethyl alone and in combination. Weighed amounts of acid or methyl esters of the compounds of formula (I) were dissolved in a volume of 97:3 v/v acetone/dimethylsulfoxide (DMSO) to obtain concentrated solutions. […] The concentrated solutions of the test compound were diluted with the addition of an aqueous mixture containing acetone, water, isopropyl alcohol, DMSO, Agri-Dex crop oil concentrate, and Triton® X-77 surfactant in a 64.7:26.0:6.7:2.0:0.7:0.01 v/v ratio. Test compounds were diluted to the appropriate application rate with a dilution solution which was prepared by mixing the appropriate volume of 97:3 v/v acetone/DMSO and the appropriate volume of an aqueous mixture containing acetone, water, isopropyl alcohol, DMSO, Agri-Dex crop oil concentrate, and Triton® X-77 surfactant in a 64.7:26.0:6.7:2.0:0.7:0.01 v/v ratio. Compound requirements are based upon a 12 mL application volume at a rate of 187 liters per hectare (L/ha). The concentrated solutions of the safener were prepared following the same procedure. Weighed amounts of safener were dissolved in a volume of 97:3 v/v acetone/DMSO to obtain concentrated safener solutions.
(§4) Spray solutions of the herbicide safener and test compound mixtures were prepared by adding the concentrated solutions to the appropriate amount of dilution solution to form 12 mL spray solution with active ingredients in combinations.
(§5) Formulated compounds were applied to the plant material with an overhead Mandel track sprayer equipped with 8002E nozzles calibrated to deliver 187 L/ha over an application area of 0.503 square meters (m^2) at a spray height of 18 inches (43 centimeters (cm)) above average plant canopy. Control plants were sprayed in the same manner with the solvent blank.
(§6) The treated plants and control plants were placed in a greenhouse as described above and watered by sub-irrigation to prevent wash-off of the test compounds. After 20-22 d, the condition of the test plants as compared with that of the control plants was determined visually and scored on a scale of 0 to 100 percent where 0 corresponds to no injury and 100 corresponds to complete kill.
(§7) Colby's equation was used to determine the herbicidal effects expected from the mixtures (Colby, S. R. Calculation of the synergistic and antagonistic response of herbicide combinations. Weeds 1967, 15, 20-22.).
(§8) The following equation was used to calculate the expected activity of mixtures containing two active ingredients, A and B: Expected=A+B−(A×B/100)
(§9) A=observed efficacy of active ingredient A at the same concentration as used in the mixture.
(§10) B=observed efficacy of active ingredient B at the same concentration as used in the mixture.

[2] = test system: winter barley (Hordeum vulgare L; HORVW); test: Postemergence herbicidal safening in cereal crops, greenhouse, visual injury: winter barley; conditions: 20-22 d
Method: as §1, §2, §3, §4, §5, §6, §7, §8, §9, §10

[3] = test system: bird's-eye speedwell (Veronica persica L; VERPE); test: Postemergence herbicidal activity, greenhouse, visual injury: bird's-eye speedwell
Method: as §1, §2, §3, §4, §5, §6, §7, §8, §9, §10

CIRAR = test: Postemergence herbicidal activity, greenhouse, visual injury: CIRAR; conditions: for CIRAR Ob (visual injury): 20-22 d
Method: as §1, §2, §3, §4, §5, §6, §7, §8, §9, §10

[4] = test system: wild mustard (Sinapis arvensis L.; SINAR); test: Postemergence herbicidal activity, greenhouse, visual injury: SINAR
[5] = Compound 10 0, CQC-M 8.75 g ae/ha
[6] = Compound 10 0, CQC-M 17.5 g ae/ha
[7] = Compound 10 0, CQC-M 35 g ae/ha
[8] = Compound 10 0, CQC-M 70 g ae/ha
[9] = Compound 10 0, CQC-M 140 g ae/ha

CCCCCC(C)OC(=O)COc1ccc(Cl)c2cccnc12 (stereo not drawn) [CQC-M, cloquintocet-mexyl, reference compound]
0%: TRZAW Ob (visual injury) ([1]; safener alone 0.547 g/ha) | TRZAW Ob (visual injury) ([1]; safener alone 2.1875 g/ha) | TRZAW Ob (visual injury) ([1]; safener alone 8.75 g/ha) | TRZAW Ob (visual injury) ([1]; safener alone 35 g/ha) | TRZAW Ob (visual injury) ([1]; safener alone 70 g/ha) | TRZAW Ob (visual injury) ([1]; safener alone 140 g/ha) | HORVW Ob (visual injury) ([2]; safener alone 0.547 g/ha) | HORVW Ob (visual injury) ([2]; safener alone 2.1875 g/ha) | HORVW Ob (visual injury) ([2]; safener alone 8.75 g/ha) | HORVW Ob (visual injury) ([2]; safener alone 35 g/ha) | HORVW Ob (visual injury) ([2]; safener alone 70 g/ha) | HORVW Ob (visual injury) ([2]; safener alone 140 g/ha) | VERPE Ob (Observed values, % control) [3, 5] | VERPE Ob (Observed values, % control) [3, 6] | VERPE Ob (Observed values, % control) [3, 7] | VERPE Ob (Observed values, % control) [3, 8] | VERPE Ob (Observed values, % control) [3, 9] | VERPE Ob (visual injury) ([3]; safener alone 8.75 g/ha, 20-22 d) | CIRAR Ob (Observed values, % control) (CIRAR; [5]) | CIRAR Ob (Observed values, % control) (CIRAR; [6]) | CIRAR Ob (Observed values, % control) (CIRAR; [7]) | CIRAR Ob (Observed values, % control) (CIRAR; [8]) | CIRAR Ob (Observed values, % control) (CIRAR; [9]) | CIRAR Ob (visual injury) (CIRAR; safener alone 70 g/ha) | CIRAR Ob (visual injury) (CIRAR; safener alone 140 g/ha) | SINAR Ob (Observed values, % control) [4, 5] | SINAR Ob (Observed values, % control) [4, 6] | SINAR Ob (Observed values, % control) [4, 7] | SINAR Ob (Observed values, % control) [4, 8] | SINAR Ob (Observed values, % control) [4, 9]
